From patent US10881106B2, “Herbicidal pyridazinone compounds” (SYNGENTA PARTICIPATIONS AG, priority 2016, dated 2021)

What was measured:
Type in all cases: in vivo
Zea mays (ZEAMX) = test: Post-emergence glasshouse herbicide test, percentage damage to crop plant; conditions: POST Application, 125 g/ha, evaluated after 14 days; crop (corn)
Description: (§1) Seeds of a variety of test species were sown in standard soil in pots (Amaranthus retoflexus (AMARE), Abutilon theophrasti (ABUTH), Digitaria sanguinalis (DIGSA), Setaria faberi (SETFA) and Zea mays (ZEAMX). After cultivation for 10 days under controlled conditions in a glasshouse (at 24/16° C., day/night; 14 hours light; 65% humidity), the plants were sprayed with an aqueous spray solution derived from the formulation of the technical active ingredient in 0.6 ml acetone and 45 ml formulation solution containing 10.6% Emulsogen EL (Registry number 61791-12-6), 42.2% N-methyl pyrrolidone, 42.2% dipropylene glycol monomethyl ether (CAS RN 34590-94-8) and 0.2% X-77 (CAS RN 11097-66-8). The test plants were then grown in a glasshouse under controlled conditions in a glasshouse (at 24/16° C., day/night; 14 hours light; 65% humidity) and watered twice daily. After 14 days the test is evaluated for the percentage damage caused to the plant. The biological activities are shown in the following table on a five point scale (5=80-100%; 4=60-79%; 3=40-59%; 2=20-39%; 1=0-19%).

Setaria faberi (SETFA) = test: Post-emergence glasshouse herbicide test, percentage damage to plant; conditions: POST Application, 125 g/ha, evaluated after 14 days
Description: as §1

[1] = test system: Amaranthus retoflexus (AMARE); test: as above; conditions: POST Application, 125 g/ha, evaluated after 14 days
Description: as §1

[2] = test system: Digitaria sanguinalis (DIGSA); test: as above; conditions: POST Application, 125 g/ha, evaluated after 14 days
Description: as §1

[3] = test system: Abutilon theophrasti (ABUTH); test: as above; conditions: POST Application, 125 g/ha, evaluated after 14 days
Description: as §1

Compound | ZEAMX percentage damage caused to the plant (five point scale) (Zea mays (ZEAMX)) | SETFA percentage damage caused to the plant (five point scale) (Setaria faberi (SETFA)) | AMARE percentage damage caused to the plant (five point scale) [1] | DIGSA percentage damage caused to the plant (five point scale) [2] | ABUTH percentage damage caused to the plant (five point scale) [3]
Cc1cc(C(=O)C2=C([O-])CCCC2=O)c(=O)n(CC(F)(F)C(=O)N(C)C)n1.[Na+] [Compound 1.018] | 1 (1=0-19%) | 5 (5=80-100%) | 5 (5=80-100%) | 5 (5=80-100%) | 5 (5=80-100%)
Cc1cc(C(=O)C2=C([O-])CC(C)CC2=O)c(=O)n(CCC(=O)N(C)CC(F)(F)F)n1.[Na+] (stereo not shown) [Compound 1.020] | 1 (1=0-19%) | 5 (5=80-100%) | 4 (4=60-79%) | 5 (5=80-100%) | 5 (5=80-100%)
